From publication PMC3325260, “Label-Free Phenotypic Profiling Identified D-Luciferin as a GPR35 Agonist” (PLoS ONE, 2012)
Read-outs that look alike come from different tables or passages of the source.

Assays:
[1] = system: purified luciferase enzyme; settings: binding to purified luciferase enzyme; cited from earlier work
[2] = molecular target: T1, endogenous GPR35 in HT-29 cells (Homo sapiens, UniProt Q9HC97)
Experimental: All data represent mean ± s.d. from 2 independent measurements, each in duplicate (n = 4).
(§1) All DMR assays were performed using Epic® system (Corning Inc.). Epic® is a wavelength interrogation reader system tailored for resonant waveguide grating biosensors in microtiter plates. This system consists of a temperature-control unit (26°C), an optical detection unit, and an on-board liquid handling unit with robotics. The detection unit is centered on integrated fiber optics, and enables kinetic measures of cellular responses with a time interval of ∼15 sec. Cells were directly seeded in Epic® plates and cultured overnight to form confluent monolayer in the cell culture medium. The cell seeding density was 32, 000 cells per well, unless specifically mentioned. After being washed twice, the cells were maintained with HBSS (1× Hanks balanced salte buffer, 10 mM Hepes-KOH, pH 7.1) and further incubated inside the system for 1 hr. […] The assay vehicle containing equal amount of DMSO (dimethyl sulfoxide) was used as a control. All ligand-induced DMR were background corrected.

[3] = molecular target: T1, endogenous GPR35 in HT-29 cells; assay: cell-based
Experimental: as §1

[4] = system: ERK1/2 phosphorylation in HT-29 cells; assay: ERK phosphorylation, Western blot; assay type: cell-based, human; settings: for effect on the D-luciferin-induced ERK phosphorylation: 5 min after 32 µM D-luciferin, antagonist at different doses
Description: Since ligand-directed functional selectivity or biased agonism is quite common to many, if not all, GPCRs, we next examined the activity of D-luciferin using ERK phosphorylation, receptor internalization and Tango β-arrestin translocation assays. ERK phosphorylation is a hallmark of the activation and signaling of many GPCRs including GPR35 [20].
The phosphorylated ERK and total ERK were blotted, and actin was used as control. Representative images obtained from 2 independent measurements were used.
The p44/42 MAP kinases were examined using Western blotting. Whole cell lysates were collected after the cells were treated with a compound or DMSO for 1 hr. Equivalent gel loading was confirmed by probing with anti-actin body. The total ERK1/2 and phosphorylated ERK1/2 were blotted using respective antibodies.

[5] = molecular target: T2, human GPR35 in Tango GPR35-bla U2OS cells (Homo sapiens, UniProt Q9HC97); assay: cell-based; settings: read-out: maximal response relative to the zaprinast maximal response
[6] = molecular target: T2, human GPR35 in Tango GPR35-bla U2OS cells
[7] = molecular target: T1, endogenous GPR35 in HT-29 cells; settings: 32 µM, 1 hr
Description: Representative images obtained from 2 independent measurements were used.

[8] = molecular target: T1, endogenous GPR35 in HT-29 cells; assay: DMR agonist assay in native HT-29 cells; assay type: cell-based; parameters: endogenous in cells; host or cells: HT-29; settings: for maximal P-DMR amplitude: HT-29 cells, picometer shift of resonant wavelength, n = 36; for DMR response of the compound alone: HT-29, up to 64 µM
Description: First, multiple DMR assays were employed to characterize the pharmacology of D-luciferin in HT-29 cells, a native cell line endogenously expressing GPR35 [18]. […] Second, D-luciferin-induced internalization of endogenous GPR35 in HT-29 cells was examined. Third, D-luciferin-induced ERK phosphorylation in the absence and presence of GPR35 antagonists was examined in HT-29 cells. Fourth, Tango β-arrestin translocation assay was finally employed to examine the agonism of D-luciferin to cause β-arrestin translocation in an engineered cell line.
as §1

[9] = molecular target: T1, endogenous GPR35 in HT-29 cells; assay: DMR antagonist assay (antagonist pre-treatment, then agonist); assay type: cell-based; parameters: endogenous in cells; host or cells: HT-29; settings: for IC50: 5 min pre-stimulation with antagonist, then D-luciferin at 32 µM, n = 4, read-out: apparent IC50 of blocking the DMR induced by D-luciferin
Experimental: as §1, with “Epic®” for “All DMR assays were performed using Epic® system (Corning Inc.). Epic®”

[10] = molecular target: T1, endogenous GPR35 in HT-29 cells; parameters: endogenous in cells; host or cells: HT-29; method as in PMID 21950657; settings: up to 64 µM; cited from earlier work
[11] = molecular target: T1, endogenous GPR35 in HT-29 cells; parameters: endogenous in cells; host or cells: HT-29; method as in PMID 21950657; settings: cited from earlier work

T2 sequence (Q9HC97 whole entry): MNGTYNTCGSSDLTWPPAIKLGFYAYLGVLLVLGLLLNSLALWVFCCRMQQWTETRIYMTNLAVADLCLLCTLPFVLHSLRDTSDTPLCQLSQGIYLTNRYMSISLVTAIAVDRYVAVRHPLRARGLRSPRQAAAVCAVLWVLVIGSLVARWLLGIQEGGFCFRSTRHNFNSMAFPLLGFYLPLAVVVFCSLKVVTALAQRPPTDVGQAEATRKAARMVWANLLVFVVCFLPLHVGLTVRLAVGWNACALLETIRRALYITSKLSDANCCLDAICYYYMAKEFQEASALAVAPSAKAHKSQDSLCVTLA
T1 sequence (Q9HC97 whole entry): as above

Compound: O=C(O)[C@H]1CSC(c2nc3ccc(O)cc3s2)=N1 [D-luciferin, (S)-2-(6′-hydroxy-2′-benzothiazolyl)thiazoline-4-carboxylic acid]
- Km [1]: 16 µM
- effect on the potency of pamoic acid in DMR co-stimulation ([2]; D-luciferin at different fixed doses, up to 50 µM): did not alter the potency
- effect on DMR of pamoic acid at 200 nM (saturating concentration) ([2]; high doses of D-luciferin): reduced the DMR in a dose-dependent manner
- IC50 [3]: 6.8 ± 0.7 µM
- time of maximum ERK phosphorylation after stimulation ([4]; 32 µM D-luciferin): 2 min
- ERK phosphorylation ([4]; 32 µM D-luciferin for different times): led to phosphorylation of ERK in a time-dependent manner
- Emax [5]: 20%
- effect on the maximal response of zaprinast, Tango co-stimulation ([6]; 100 µM D-luciferin): only slightly suppressed
- effect on the maximal response of zaprinast, Tango co-stimulation ([6]; 1 mM D-luciferin): suppressed the maximal response
- effect on the potency of zaprinast, Tango co-stimulation ([6]; D-luciferin at 100 µM and 1 mM): little impact
- internalization of endogenous GPR35 [7]: remarked internalization
- maximal P-DMR amplitude [8]: 198±12 pm

Compound: CC(/C=C1\SC(=S)N(CCCC(=O)Nc2ccc(C(=O)O)c(O)c2)C1=O)=C\c1ccccc1 [ML145]
- effect on the D-luciferin-induced ERK phosphorylation [4]: dose-dependently attenuated

Compound: COC(=O)c1cnn(-c2ccc(F)cc2F)c1/C=N/NC(N)=S [SPB05140]
- IC50 [9]: 5 ± 0.9 µM
- DMR response of the compound alone [8]: little response

Compound: COC(=O)c1cnn(-c2ccc(F)cc2F)c1C=NNC(=S)NC(C)(C)C [SPB05142, methyl-5-[(tert-butylcarbamothioylhydrazinylidene)-methyl]-1-(2,4-difluorophenyl)-pyrazole-4-carboxylate]
- IC50 [9]: 1.5 ± 0.2 µM
- D-luciferin DMR in presence of antagonist at the two highest doses ([9]; SPB05142 at 16 and 32 µM, D-luciferin 32 µM): small but detectable negative DMR signal
- DMR response of the compound alone [10]: did not lead to any detectable DMR
- blockade of the DMR induced by zaprinast [11]: almost completely blocked
- ERK phosphorylation by compound alone ([4]; 25 µM): weak but detectable ERK phosphorylation
- effect on the D-luciferin-induced ERK phosphorylation [4]: dose-dependently attenuated

Compound: COC(=O)c1cnn(-c2ccc(F)cc2F)c1/C=N/NC(=S)Nc1ccccc1 [SPB05143]
- IC50 [9]: 2.6 ± 0.3 µM
- DMR response of the compound alone [8]: little response

Compound: Cc1c(C(=O)O)sc2c(Br)csc12 [YE210]
- ERK phosphorylation ([4]; 1 µM, 30 min after treatment): led to ERK phosphorylation

Compound: O=C(O)c1cc2ccccc2c(Cc2c(O)c(C(=O)O)cc3ccccc23)c1O [pamoic acid]
- ERK phosphorylation ([4]; 1 µM, 30 min after treatment): much lower ERK phosphorylation

Compound: CCCOc1ccccc1-c1nc2nn[nH]c2c(=O)[nH]1 [zaprinast]
- ERK phosphorylation ([4]; 1 µM, 30 min after treatment): led to ERK phosphorylation
- maximal P-DMR amplitude [8]: 276±17 pm
